According to US7084301B2 (Ranbaxy Laboratories Limited, priority 2003, dated 2006):
pKi: −log10 of the molar value. Like-named read-outs stand apart in the source and are kept apart here.

Legend:
[1] = system: anaesthetised normotensive rats; test: Hypotensive effect in anaesthetised normotensive rats; assay type: in vivo, rat; details: for effect on blood pressure / effect on heart rate accompanying fall in blood pressure: anaesthetised normotensive rats, cumulative 0.01-10 μg/kg; for ED20: Effective dose to produce a fall in blood pressure by 20%: urethane-anaesthetised male normotensive rats, cumulative doses via femoral vein
Description: Male normotensive rats were anaesthetised with urethane (1.2 g/kg, i.p.). Carotid artery and femoral vein were cannulated for recording blood pressure and administration of test compounds respectively. Trachea was cannulated to maintain the airway patency. Rats were divided into two groups of 10 rats each. Group I received compound of Formula I, and Group II received Tamsulosin. Compounds were administered cumulatively at dose level of 0.01, 0.03, 0.1, 0.3, 1 & 10 μg/kg and effects on blood pressure and heart rate were monitored. Each subsequent dose in cumulative dose range was administered after previous response had stabilized.
Blood pressure and heart rate were recorded before and after drug treatment on a Grass polygraph using a Statham pressure transducer and tachograph. Effect on blood pressure was expressed as percentage change from the basal level. ED20 was calculated by fitting the cumulative dose response data in non-linear regression analysis and the value was taken from the curve. Effect on heart rate was expressed as change in beats/min.
To compare the difference amongst the dose groups one-way ANOVA followed by Dunett ‘t’ test was applied. A p of <0.05 was considered statistically significant.

[2] = biological target: T1, human α1D-adrenoceptors (Homo sapiens, UniProt P25100); test: Radioligand-receptor binding assay, human recombinant α1D-adrenoceptor, [3H]prazosin
T1 sequence (P25100 1-572): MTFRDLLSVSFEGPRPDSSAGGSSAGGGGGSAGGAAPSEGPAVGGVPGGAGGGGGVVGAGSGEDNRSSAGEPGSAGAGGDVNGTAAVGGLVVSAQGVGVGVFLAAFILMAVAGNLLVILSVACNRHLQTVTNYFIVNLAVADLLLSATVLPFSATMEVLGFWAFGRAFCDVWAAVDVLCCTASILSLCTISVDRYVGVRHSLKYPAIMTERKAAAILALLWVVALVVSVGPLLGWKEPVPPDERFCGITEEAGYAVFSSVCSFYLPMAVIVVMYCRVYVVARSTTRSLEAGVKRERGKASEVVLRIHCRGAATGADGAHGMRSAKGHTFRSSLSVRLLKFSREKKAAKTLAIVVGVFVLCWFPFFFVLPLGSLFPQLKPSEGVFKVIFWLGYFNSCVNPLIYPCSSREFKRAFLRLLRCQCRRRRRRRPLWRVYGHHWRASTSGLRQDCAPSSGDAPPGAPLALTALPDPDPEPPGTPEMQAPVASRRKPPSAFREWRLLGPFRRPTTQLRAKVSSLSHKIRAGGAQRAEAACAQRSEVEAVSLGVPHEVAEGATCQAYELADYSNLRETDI
Description: Chinese hamster ovary (CHO) cells which had been stably transfected with human α1A, α1B, or α1D-adrenoceptors (Keffel et al., Biochem. Biophys. Res. Commun., 2000, 272, 906–11) were cultured in an atmosphere of 5% CO2/95% air at 37° C. in F-12 HAM medium supplemented with 10% heat-inactivated fetal calf serum, 1 mM glutamine, 100 U/ml penicillin and 0.1 mg/ml streptomycin. Selection pressure was maintained by regular addition of geneticin to the culture medium.
Competitive radioligand binding to the cloned subtypes of […] was performed using [^3H]prazosin as the radioligand as described by Michel et al, Br. J. Pharmacol., 98, 883–889 (1989) with minor modifications. Experiments were performed in binding buffer consisting of 50 mM Tris, 10 mM MgCl2 and 0.5 mM EDTA at pH 7.5 in a total assay volume of 1000 μl. The protein content typically was 40–60 μg/assay. The mixtures were incubated at 25° C. for 45 minutes. Incubations were terminated by rapid vacuum filtration over GF/C filters followed by two washes of the filters each with 10 ml ice-cold incubation buffer. Non-specific binding was defined as binding in the presence of 10 μM phentolamine.
The IC50 & Kd were estimated by using the non-linear curve fitting program using G Pad Prism software. The value of inhibition constant Ki was calculated from competitive binding studies by using Cheng & Prusoff equation [Cheng & Prusoff, Biochem. Pharmacol., 22, 3099–3108 (1973)], Ki=IC50/(1+L/Kd), where L is the concentration of [^3H] prazosin used in the particular experiment. Kd of [^3H] prazosin was determined from saturation binding studies. The values were tabulated as mean±SEM of pKi values, where pKi is the −log of Ki value.

[3] = biological target: T2, D-3 receptors (Homo sapiens, UniProt P35462); details: reported, J. Med. Chem. 2000; cited from earlier work
T2 sequence (P35462 whole entry): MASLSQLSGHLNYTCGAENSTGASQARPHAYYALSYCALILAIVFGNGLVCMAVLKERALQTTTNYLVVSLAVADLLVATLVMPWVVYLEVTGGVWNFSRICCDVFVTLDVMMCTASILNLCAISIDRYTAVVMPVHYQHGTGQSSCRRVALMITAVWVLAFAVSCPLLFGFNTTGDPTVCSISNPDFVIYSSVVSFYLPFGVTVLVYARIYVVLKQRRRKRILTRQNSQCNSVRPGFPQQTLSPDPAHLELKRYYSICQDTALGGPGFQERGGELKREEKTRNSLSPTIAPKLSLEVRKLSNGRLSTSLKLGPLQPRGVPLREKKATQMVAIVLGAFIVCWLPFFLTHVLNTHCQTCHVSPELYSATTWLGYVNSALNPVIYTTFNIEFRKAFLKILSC

[4] = biological target: T2, D-3 receptors; test: Radioligand-receptor binding assay, human recombinant D3 receptors, [3H]Spiperone
Description: Receptor binding assays were performed using human recombinant D3 receptors. […] Non-specific binding was defined by 25 μM S(−)Sulpiride.

[5] = biological target: T3, rat α1B-adrenoceptor (spleen) (Rattus norvegicus, UniProt P15823); test: In-vitro functional study, agonist-induced contractile response on isolated rat spleen; assay type: biochemical
T3 sequence (P15823 1-515): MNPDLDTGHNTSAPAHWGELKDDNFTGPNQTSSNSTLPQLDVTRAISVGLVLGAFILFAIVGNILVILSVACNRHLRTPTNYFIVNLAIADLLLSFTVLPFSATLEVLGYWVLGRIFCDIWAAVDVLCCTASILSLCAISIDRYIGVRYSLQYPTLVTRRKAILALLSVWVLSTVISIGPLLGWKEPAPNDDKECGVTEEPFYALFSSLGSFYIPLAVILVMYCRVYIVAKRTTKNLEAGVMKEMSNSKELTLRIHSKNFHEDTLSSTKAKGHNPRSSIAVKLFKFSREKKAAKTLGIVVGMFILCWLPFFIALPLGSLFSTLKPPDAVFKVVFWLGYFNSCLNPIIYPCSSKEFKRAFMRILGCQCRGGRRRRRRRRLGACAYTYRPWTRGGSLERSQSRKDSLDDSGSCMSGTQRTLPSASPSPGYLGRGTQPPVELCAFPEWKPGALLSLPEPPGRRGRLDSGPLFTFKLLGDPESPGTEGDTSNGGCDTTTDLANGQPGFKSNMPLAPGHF
Description: Aorta, prostate and spleen tissues were isolated from urethane anaesthetized (1.5 gm/kg) male wistar rats. Isolated tissues were mounted in organ bath containing Krebs Henseleit buffer of following compostion (mM): NaCl 118; KCl 4.7; CaCl2 2.5; MgSO4.7H2O 1.2; NaHCO3 25; KH2PO4 1.2; glucose 11.5. Buffer was maintained at 37° C. and aerated with a mixture of 95% O2 and 5% CO2. A resting tension of 2 g (aorta) or 1 g (spleen and prostate) was applied to tissues. Contractile response was monitored using a force displacement transducer and recorded on chart recorders. Tissues were allowed to equilibrate for 2 hours. At the end of equilibration period, concentration response curves to norepinephrine (aorta) and phenylepinephrine (spleen and prostate) were obtained in absence and presence of tested compound (at concentrations of […]). Antagonist affinities were calculated and expressed as pKB vales in Table II.
To compare the differences in pKB at the α1-arenrenoceptor subtypes one-way ANOVA followed by Dunett ‘t’ test was applied. A p<0.05 was considered statistically significant.

SMILES	effect on blood pressure [1]	effect on heart rate accompanying fall in blood pressure [1]	ED20: Effective dose to produce a fall in blood pressure by 20% [1] [µg/kg]	Ki ([2]; human recombinant receptors in CHO cells, mean ± SEM, read-out: pKi α1D (converted)) [nM]	affinity for D-3 receptors [3]	pKi [4]	Kb ([5]; rat spleen, phenylepinephrine-induced contraction, *p < 0.05 vs pKB at prostate tissue, read-out: pKB α1B (converted)) [nM]	pKi [2]	fold greater α1A versus D3 selectivity as compared to tamsulosin ([4]; Table I and IV) [fold]	fold lower affinity for D3 receptors than tamsulosin ([4]; human recombinant receptors) [fold]	Kb [5] [nM]
CCOc1ccccc1OCCNC(C)Cc1ccc(OC)c(S(N)(=O)=O)c1 (single isomer, unassigned; (-)) [Tamsulosin, (−) isomer of 5-[2-[2-(2-ethoxyphenoxy)ethylamino]-2-methylethyl]-2-methoxybenzene sulfonamide, reference compound]	dose dependent fall in blood pressure	decrease in the heart rate	0.3	0.0813	subnanomolar affinity	9.55	0.275	–	–	–	–
CCOc1ccccc1OCCN[C@H](C)Cc1ccc(O)c(S(N)(=O)=O)c1 [Formula I, R (−)-5-[2-[[2-(2-ethoxyphenoxy)ethyl]amino]propyl]-2-hydroxybenzenesulfonamide]	dose dependent fall in blood pressure	increase in heart rate	0.52	–	–	8.75	–	9.97	14	6	0.501
